Source: PubChem BioAssay (NCI)
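Five compound concentrations were applied to cells in 96-well plates for 48 hours; endpoints were derived by simple linear interpolation of the resulting dose-response curve. GI50 is the concentration that inhibits growth by half. TGI: total growth inhibition.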

Legend:
Experiment in all cases: inhibition of tumour cell growth, NCI panel, 48 h
[1] = system: A498 renal
[2] = system: HOP-92 NSCLC
[3] = system: HS 578T breast
[4] = system: IGROV1 ovarian
[5] = system: K-562 leukemia
[6] = system: PC-3 prostate
[7] = system: SF-268 CNS
[8] = system: UO-31 renal

| SMILES | GI50 [1] [µM] | TGI [1] [µM] | GI50 [2] [µM] | TGI [2] [µM] | GI50 [3] [µM] | TGI [3] [µM] | GI50 [4] [µM] | TGI [4] [µM] | GI50 [5] [µM] | TGI [5] [µM] | GI50 [6] [µM] | TGI [6] [µM] | GI50 [7] [µM] | TGI [7] [µM] | GI50 [8] [µM] | TGI [8] [µM] |
| --- | --- | --- | --- | --- | --- | --- | --- | --- | --- | --- | --- | --- | --- | --- | --- | --- |
| COc1ccc(N(/C=C/C(=O)C(F)(F)F)CC(=O)c2ccc(Cl)c(Cl)c2)cc1 | 10.1 | 22.2 | 13.2 | 41.8 | 4.81 | 14.6 | 22.8 | 60.9 | 4.07 | > 100 | 8.33 | 28.3 | 11.3 | 30.3 | 24.1 | > 100 |
| N#Cc1c(N)nc(N2CCOCC2)c(C#N)c1-c1ccccc1Cl | 2.28 | 25.2 | 16.9 | 72.4 | 23.6 | > 100 | 14.7 | 41.7 | 60.9 | > 100 | 22.6 | > 100 | 25.4 | 85.7 | 14.5 | 43.4 |
| O=C(COc1cccc(/C=C2\CSc3ccccc3C2=O)c1)c1ccc(Cl)cc1 | 3.95 | 8.69 | 3.27 | 44.2 | 2.74 | 17.2 | 2.02 | 4.26 | – | – | 2.01 | 5.25 | 2.16 | 5.2 | 1.63 | 3.32 |
| C[C@H](N)C(=O)N1C[C@H](CCCB(O)O)[C@](N)(C(=O)O)C1 | > 100 | > 100 | > 100 | > 100 | > 100 | > 100 | > 100 | > 100 | > 100 | > 100 | > 100 | > 100 | > 100 | > 100 | > 100 | > 100 |
| CCOC(=O)Nc1nc2c(C)cccc2s1 | 11.7 | 54.8 | 13.9 | 71.5 | 36.1 | > 100 | 46 | > 100 | 34.7 | > 100 | 48.9 | > 100 | 55.3 | > 100 | 33.5 | > 100 |
| C=C1C[C@@]2(C)C(CC[C@]3(C)C2CC=C2C4CC(C)(C)C[C@@H](OC(=O)/C(C)=C\C)[C@]4(C(=O)O)CC[C@]23C)C(C)(C)C1=O (stereo partly specified) | – | – | 2.34 | 7.15 | 5.21 | 34.4 | 3.05 | 10.1 | 2.45 | 11.5 | 1.99 | 5.94 | 6.76 | 28 | 1.89 | 3.92 |
| OCC(O)C(O)C(O)/C=N/Nc1nc2ccccc2nc1-c1ccccc1 (stereo unspecified) | > 100 | > 100 | 60.1 | > 100 | 83.6 | > 100 | 57.4 | > 100 | 68.9 | > 100 | 82.4 | > 100 | 74.1 | > 100 | > 100 | > 100 |
| Nc1nc(-c2cccc([N+](=O)[O-])c2)cc(-c2cc(-c3cccc([N+](=O)[O-])c3)nc(N)n2)n1 | – | > 100 | – | > 100 | – | > 100 | – | > 100 | – | > 100 | – | > 100 | – | > 100 | – | > 100 |
| OCc1ccc(N(CCN2CCCC2)Cc2ccc(F)cc2)cc1Cl | 1.97 | 11.9 | – | – | 20.9 | 80.1 | 3.27 | 16.8 | 16.2 | 40.4 | 15.6 | 37 | 21 | 69 | 13.8 | 31.2 |
| CCCN(CCSSCCNc1nc(N(C)O)nc(N(C)O)n1)c1nc(N(C)O)nc(N(C)O)n1 | 19.5 | > 100 | 6.1 | > 100 | 25.5 | > 100 | 32.3 | > 100 | 15.7 | > 100 | 82.4 | > 100 | 6.37 | > 100 | 5.19 | > 100 |
| Cc1nc(C(N)=S)sc1C(=O)C/C(=N/N)C(=O)Nc1ccc(Cl)cc1 | – | – | – | – | – | > 100 | – | > 100 | – | > 100 | – | > 100 | – | > 100 | – | > 100 |
| CN(C)CCCn1c2nc(=O)[nH]c(=O)c-2nc2cc(Cl)c(Cl)cc21 | 16.1 | 30.4 | 12.2 | 25.8 | 30.9 | > 100 | 4.65 | 13.9 | 3.43 | 15.3 | 2.67 | 8.8 | 5.31 | 17.6 | 2.73 | 10.9 |
| O=C1CCS/C(=N\S(=O)(=O)c2ccc(N3N=C4c5ccccc5CC4C3c3cccs3)cc2)N1C(=O)c1ccccc1 (stereo unspecified) | – | – | 25.4 | > 100 | 2.85 | 34.2 | 14.5 | 29.9 | 26.4 | > 100 | 29.2 | > 100 | 13.7 | > 100 | 30.7 | > 100 |
| NC1=Nc2cc(OCCCN3Cc4ccccc4C3)c(OCC3CC3)cc2C12CCCC2 | 4.48 | 18.1 | 0.718 | 3.14 | 2.83 | 17.7 | 4.17 | 17.2 | 0.74 | 4.08 | 2.66 | 12.7 | 3.79 | 16.9 | 1.49 | 3.14 |
| Fc1ccc2[nH]cc(SSc3c[nH]c4ccc(F)cc34)c2c1 | 3.61 | 14.4 | 1.95 | 7.92 | 4.22 | 31.1 | 5.35 | 20.8 | 3.89 | > 100 | 0.861 | 12 | 5.07 | 21.9 | 4.83 | 52.3 |
| COc1ccccc1-c1cc(=O)c2ccc(OC)c(OC)c2o1 | – | > 100 | – | > 100 | – | > 100 | – | > 100 | – | > 100 | – | – | – | > 100 | – | > 100 |
| C=C1C(=O)O[C@H]2[C@H]1CC/C(Cn1cc(-c3cc(C)c(C)cc3C)nn1)=C\CC[C@@]1(C)O[C@@H]21 | 1.04 | 4 | 0.436 | 1.68 | 1.94 | 6.2 | 1.29 | 2.74 | 1.39 | 6.24 | 1.47 | 3 | 1.52 | 3.06 | 0.528 | 1.89 |

| SMILES | GI50 [1] [µM] | TGI [1] [µM] | GI50 [2] [µM] | TGI [2] [µM] | GI50 [3] [µM] | TGI [3] [µM] | GI50 [4] [µM] | TGI [4] [µM] | GI50 [5] [µM] | TGI [5] [µM] | GI50 [6] [µM] | TGI [6] [µM] | GI50 [7] [µM] | TGI [7] [µM] | GI50 [8] [µM] | TGI [8] [µM] |
| --- | --- | --- | --- | --- | --- | --- | --- | --- | --- | --- | --- | --- | --- | --- | --- | --- |
| COc1cc(OC)c(C(=O)/C=C/c2cccc(OC(C)=O)c2)cc1CC=C(C)C | 16.9 | > 50 | 8.52 | 39.8 | > 50 | > 50 | 15.9 | > 50 | 8.56 | > 50 | 9.4 | 44 | 7.26 | 22.7 | 15.9 | > 50 |
| O=C1NN(c2ccccc2)C(=O)/C1=C/c1ccc(Br)o1 | 23 | 53.9 | – | 3.33 | 1.49 | 3.11 | 5.19 | 35 | 14.1 | > 77.7 | 6.9 | 26.3 | 14 | 47.7 | 8.8 | > 64.1 |
| Cc1cc2cn3c4cccnc4[nH]c(=O)c3c2cc1C | 3.8 | 18.5 | 1.24 | 2.65 | 1.85 | 4.38 | – | – | – | – | 1.42 | 2.89 | – | – | 1.5 | 2.97 |
| COc1ccc2c(c1)C1(C(=O)N2)C(C#N)=C(c2ccccc2)Nc2c1c(-c1ccccc1)nn2-c1ccccc1 (stereo unspecified) | 1.61 | 4.35 | 2.34 | 6.34 | 4.1 | 19.3 | 3.57 | 16.4 | 4.6 | 22.9 | 1.98 | 3.67 | 4.9 | 17.9 | 15.8 | 30.1 |
| CCNCCCn1c2c(c3ccc([N+](=O)[O-])cc3c1=O)C(=O)c1cc(OC)cnc1-2 | – | – | 0.471 | 17.4 | 1.05 | 4.33 | 0.184 | 1.45 | 0.0522 | 1.65 | 0.249 | 8.67 | 0.0527 | 1.5 | 0.0327 | 0.176 |
| C=C1C(=O)O[C@H]2[C@H]1CC/C(COC(=O)c1ccccc1)=C\CC[C@@]1(C)O[C@@H]21 | 16.8 | 30.8 | 0.984 | 2.61 | 2.56 | 14.8 | 0.787 | 2.66 | 0.451 | 13 | 1.8 | 4.34 | 1.56 | 3.47 | 1.2 | 2.49 |
| COc1cc2c(cc1OCCCCOc1ccc(-c3nc4ccccc4s3)cc1)N=C[C@@H]1CCCN1C2=O | 1.99 | 4.34 | 0.335 | 0.957 | 0.891 | 4.43 | 1.28 | 6.08 | 0.301 | 4.91 | 0.63 | 2.11 | 0.998 | 3.58 | 0.581 | 2.43 |
| COc1ccc2c(c1)/C(=N/OC(C)=O)c1c-2c(=O)[nH]c2ccccc12 | 7.45 | 32.4 | 11.1 | 38.3 | 8.88 | 31.4 | 1.52 | 11.8 | 11.3 | 28.7 | 11.8 | 26 | 25.1 | > 100 | 11.1 | 25.2 |
| O=[N+]([O-])c1ccc2nc3ccccc3cc2c1 | – | 3.27 | – | 18.2 | – | 27.4 | – | 6.8 | – | 8.79 | – | 10.2 | – | 83.4 | – | 16.7 |
| COC1=C(Br)C(=O)C2=C(C1=O)C1C3=C(C(=O)C=CC3=O)C2c2ccccc21 (stereo unspecified) | – | – | 2.51 | 11.6 | 4.82 | > 100 | 9.4 | 45.1 | 4.66 | > 100 | 4.35 | 25.6 | 18.2 | 59.6 | 12.2 | 41.2 |
| COc1ccc2c(c1)/C(=C/c1cc(OC)c(OC)c(OC)c1)C(=O)N2C | 2.5 | 5.92 | 3.01 | > 100 | 1.43 | 4.61 | 1.9 | 5.31 | 1.12 | > 46.5 | 2.92 | > 100 | 2.39 | 6.72 | 3.91 | > 55.7 |
| COc1ccc(-c2csc(NC(=O)c3cc(O)c(O)c(O)c3)n2)cc1 | 9.61 | > 33.3 | 5.24 | 26.2 | 19.3 | > 33.3 | 6.69 | 32.6 | 4.5 | > 33.3 | – | – | 6.31 | > 33.3 | 1.65 | > 33.3 |
| COc1ccc(-c2cc(=O)c3c(OC)c(OC)c(OC)c(OC)c3o2)c(OC)c1 | – | 76.1 | – | 55.3 | – | 49.4 | – | > 100 | – | > 100 | – | – | – | > 100 | – | 62.8 |
| COc1ccc(/C=C/NC=O)cc1 | – | > 100 | – | – | – | > 100 | – | > 100 | – | > 100 | – | > 100 | – | > 100 | – | > 100 |
| Cc1ccc(Sc2sc(-c3ccccc3)nc2[P+](c2ccccc2)(c2ccccc2)c2ccccc2)cc1 | 0.137 | 0.568 | 0.186 | 0.563 | – | – | – | – | 0.257 | 1.54 | 0.283 | 1.18 | 0.366 | 1.43 | 0.24 | 0.811 |
| Clc1ccc(Nc2ccnc(NCCCNc3ccnc4cc(Cl)ccc34)n2)cc1 | 1.29 | 2.66 | 1.16 | 2.85 | 1.73 | 3.8 | – | – | – | – | 1.58 | 3.13 | – | – | 1.68 | 3.31 |
| O=C(CC1C=CCS1(=O)=O)NCc1ccccc1 (stereo unspecified) | – | – | – | > 100 | – | > 100 | – | > 100 | – | > 100 | – | > 100 | – | > 100 | – | > 100 |
